5 compounds from ChEMBL document CHEMBL1201862, “PubChem BioAssay data set” (2004) can be followed below.

Calls of active or inactive are those of the source. Some results are limits rather than exact numbers.

In assay [1] the test system is Streptococcus sp. 'group A'. The assay can be described thus: growth inhibition of control SK(-) GAS strain, dose response, counter-screen for streptokinase expression inhibitor project, luminescence, kanamycin, BacTiterGlo, confirmation (AID 1900). The assay is classed as functional, organism-based. The settings on record: read-out: EC50.
The target of a further assay is T1, Streptokinase A (Streptococcus pyogenes serotype M1, UniProt P10520).
T1 sequence (P10520 whole entry): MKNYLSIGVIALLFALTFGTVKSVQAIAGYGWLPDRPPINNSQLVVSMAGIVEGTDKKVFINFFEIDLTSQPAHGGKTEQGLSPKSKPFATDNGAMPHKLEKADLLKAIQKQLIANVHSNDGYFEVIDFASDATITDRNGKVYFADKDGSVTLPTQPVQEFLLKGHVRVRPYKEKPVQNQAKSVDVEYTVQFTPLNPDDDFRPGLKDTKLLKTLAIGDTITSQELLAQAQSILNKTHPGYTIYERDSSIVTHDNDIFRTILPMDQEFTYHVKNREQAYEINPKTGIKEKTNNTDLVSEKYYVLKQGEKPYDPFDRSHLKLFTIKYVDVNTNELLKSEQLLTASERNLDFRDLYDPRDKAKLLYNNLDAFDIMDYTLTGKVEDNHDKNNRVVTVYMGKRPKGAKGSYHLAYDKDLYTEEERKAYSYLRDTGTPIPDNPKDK
As to the kind of experiment: S. pyogenes streptokinase expression inhibitors, potency, dose response, plasminogen activation absorbance, OD405 (AID 1914).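 Further: secreted streptokinase activity via plasminogen activation per viability signal from cell pellet.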 The assay is classed as functional, Streptococcus pyogenes M1 GAS.

The next assay has as its system Streptococcus. As to the kind of experiment: Group A Streptococcus viability loss, dose response, counter-screen for streptokinase expression inhibitor project, luminescence, BacTiterGlo (AID 1915).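 Further: potency for reduction of bacterial viability or growth.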 The assay is classed as functional, organism-based.
Another assay concerns the target Tumor necrosis factor (Homo sapiens, UniProt P01375). As to the kind of experiment: TNFa-triggered NF-kB activation inhibitors, SAR follow-up, cell-based, revised (AID 2337). The assay is classed as functional.
Assay [2] concerns the target Nucleotide-binding oligomerization domain-containing protein 1 (Homo sapiens, UniProt Q9Y239). The assay can be described thus: NOD1 signaling inhibitors, SAR follow-up, revised (AID 2333). The assay is classed as functional.
Assay [3] concerns the target Nucleotide-binding oligomerization domain-containing protein 2 (Homo sapiens, UniProt Q9HC29). The assay can be described thus: PubChem AID 2334. The assay is classed as functional.
For the next assay, the system named is H9c2. The assay can be described thus: cells. The assay is classed as functional, cell-based. As to conditions: Rattus norvegicus, H9c2, Myocardium.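 Further: confirmatory concentration-response retest of ultra-high-throughput screening hits for modulation of myocardial damage; cell death induced by hydrogen peroxide oxidative stress; compound pretreatment for 60 min then peroxide exposure for 2 h; potency is for protecting the cells against peroxide damage rather than for killing them.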
Assay [4] has as its system HEK293. As to the kind of experiment: cells. As to conditions: Homo sapiens.
Assay [5] has as its target Cyclin-dependent kinase 5/CDK5 activator 1 (Homo sapiens, UniProt Q00535). The assay can be described thus: CDK5/p35 kinase inhibitors, dose response, biochemical, cherry-picked samples, set 2 (AID 504545).
Assay [6] deals with HEK293. The assay can be described thus: cells. The assay is classed as functional, cell-based. As to conditions: Homo sapiens.
Assay [7] has as its target T2, Nuclear receptor subfamily 0 group B member 1 (Homo sapiens, UniProt P51843).
T2 sequence (P51843 whole entry): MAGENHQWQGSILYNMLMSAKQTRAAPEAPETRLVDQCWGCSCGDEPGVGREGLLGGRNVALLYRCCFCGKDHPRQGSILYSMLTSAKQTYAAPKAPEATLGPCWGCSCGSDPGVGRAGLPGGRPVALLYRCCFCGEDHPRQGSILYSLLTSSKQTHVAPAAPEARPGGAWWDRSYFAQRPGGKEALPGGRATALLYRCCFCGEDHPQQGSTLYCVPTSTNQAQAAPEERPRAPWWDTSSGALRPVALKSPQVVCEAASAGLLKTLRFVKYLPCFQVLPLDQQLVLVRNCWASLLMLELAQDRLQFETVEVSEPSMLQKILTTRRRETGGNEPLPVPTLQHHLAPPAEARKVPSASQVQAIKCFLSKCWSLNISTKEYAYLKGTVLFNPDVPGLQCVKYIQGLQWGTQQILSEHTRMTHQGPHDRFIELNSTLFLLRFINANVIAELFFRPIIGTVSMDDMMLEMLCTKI
As to the kind of experiment: Luminescence-based cell-based high throughput dose response assay for inhibitors of the orphan nuclear receptor subfamily 0, group B, member 1 (DAX1; NR0B1). [Related pubchem assays (depositor defined):AID504766, AID504790]. The assay is classed as functional.

The target of assay [8] is Dual specificity tyrosine-phosphorylation-regulated kinase 1A (Rattus norvegicus, UniProt Q63470). The assay is classed as biochemical, Homo sapiens.
Another assay deals with Mu-type opioid receptor (Homo sapiens, UniProt P35372). The assay is classed as functional, cell-based.
The target of assay [9] is 5-hydroxytryptamine receptor 2A (Mus musculus, UniProt P35363). The assay is classed as functional, cell-based.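 Further: CHO-K1 cells with tagged receptor and beta-arrestin; agonist potency measured as compound-induced activation of the receptor.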
The target of assay [10] is SWI/SNF-related matrix-associated actin-dependent regulator of chromatin subfamily A member 2 (Homo sapiens, UniProt P51531). The assay can be described thus: Luminescence-based cell-based high throughput dose response assay to identify activators of the function of SWI/SNF related, matrix associated, actin dependent regulator of chromatin, subfamily a, member 2 (SMARCA2, BRM). The assay is classed as functional.

Assay [11] can be described thus: Counterscreen for activators of the function of SWI/SNF related, matrix associated, actin dependent regulator of chromatin, subfamily a, member 2 (SMARCA2, BRM): Luminescence-based cell-based high throughput dose response assay to identify non-selective compounds using the VP16 reporter assay. The assay is classed as functional.
The target of assay [12] is T3, Oxysterols receptor LXR-beta (Homo sapiens, UniProt P55055).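 Further: agonist activity at LXR measured by a cell-based luminescence readout across a dose range, run as a counterscreen for daf-12 agonists; HEK293 cells with Gal4-LXR fusion and GAL4-driven luciferase reporter; potency for activation of Gal4-LXR reporter so compounds are agonists.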
T3 sequence (P55055 whole entry): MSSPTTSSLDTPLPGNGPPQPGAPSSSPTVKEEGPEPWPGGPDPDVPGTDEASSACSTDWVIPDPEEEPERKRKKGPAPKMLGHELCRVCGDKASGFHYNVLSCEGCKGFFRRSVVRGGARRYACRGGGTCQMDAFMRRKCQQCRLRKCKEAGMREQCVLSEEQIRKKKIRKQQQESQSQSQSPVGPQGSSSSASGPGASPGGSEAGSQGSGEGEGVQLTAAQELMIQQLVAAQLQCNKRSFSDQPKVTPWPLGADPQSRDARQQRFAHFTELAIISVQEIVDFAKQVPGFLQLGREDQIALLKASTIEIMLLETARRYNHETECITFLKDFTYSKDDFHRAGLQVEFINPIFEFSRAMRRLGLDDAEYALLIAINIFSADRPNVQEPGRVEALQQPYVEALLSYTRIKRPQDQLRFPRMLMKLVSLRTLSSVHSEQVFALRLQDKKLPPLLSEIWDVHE
The assay is classed as functional, cell-based.

Assay [13] has as its target T4, Cytochrome P450 2D6 (Homo sapiens, UniProt P10635). As to the kind of experiment: qHTS Assay for Inhibitors and Substrates of Cytochrome P450 2D6. [Related pubchem assays: 410 ]. As to conditions: read-out: Potency. The assay is classed as ADME.
In the next assay the target is Cytochrome P450 2C19 (Homo sapiens, UniProt P33261). As to the kind of experiment: Cytochrome panel assay with activity outcomes. Panel member name: p450-cyp2c19 Compounds with AC50 equal or less than 10 uM are considered active. The assay is classed as functional. As to conditions: read-out: AC50.
In assay [14] the target is T5, Cytochrome P450 2C9 (Homo sapiens, UniProt P11712). The settings on record: Potency.
Assay [15] concerns the target T4, Cytochrome P450 2D6.
The target in another assay is T6, Cytochrome P450 1A2 (Homo sapiens, UniProt P05177).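 Further: PubChem cytochrome P450 panel assay, CYP1A2 panel member.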
T6 sequence (P05177 whole entry): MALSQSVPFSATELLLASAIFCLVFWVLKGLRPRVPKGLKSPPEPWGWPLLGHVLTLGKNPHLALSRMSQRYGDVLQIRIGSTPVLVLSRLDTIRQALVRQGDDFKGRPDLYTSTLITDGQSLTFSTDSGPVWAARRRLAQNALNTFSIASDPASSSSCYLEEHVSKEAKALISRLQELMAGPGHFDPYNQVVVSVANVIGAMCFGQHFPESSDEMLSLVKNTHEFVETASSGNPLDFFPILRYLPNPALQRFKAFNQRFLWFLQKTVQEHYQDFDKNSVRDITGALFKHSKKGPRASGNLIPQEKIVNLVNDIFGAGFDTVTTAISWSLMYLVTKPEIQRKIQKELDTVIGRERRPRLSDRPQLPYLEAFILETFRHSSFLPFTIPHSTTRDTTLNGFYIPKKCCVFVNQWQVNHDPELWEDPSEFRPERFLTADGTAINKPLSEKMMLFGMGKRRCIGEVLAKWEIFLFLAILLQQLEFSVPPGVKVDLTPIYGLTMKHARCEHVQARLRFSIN

Assay [16] addresses T5, Cytochrome P450 2C9.
Assay [17] deals with Cystic fibrosis transmembrane conductance regulator/Golgi-associated PDZ and coiled-coil motif-containing protein (Homo sapiens, UniProt P13569+Q9HD26). The assay can be described thus: CAL PDZ peptide-binding inhibitors, dose response, biochemical, fluorescence polarization, Cerulean-tagged CAL PDZ, cherry-picks (AID 504773).
Assay [18] concerns the target NACHT, LRR and PYD domains-containing protein 3 (Homo sapiens, UniProt Q96P20). The assay can be described thus: NALP3 inhibitors in yeast, dose response, luminescent (AID 488799). The assay is classed as functional.
For the next assay, the system named is INS1. As to the kind of experiment: beta cell apoptosis inhibitors, cytokine rescue, dose response, luminescence, retest (AID 449756).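 Further: cell death triggered by IL-1 beta plus TNF-alpha plus IFN-gamma mixture; protective hits raise ATP signal compared with cytokine alone wells.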 The assay is classed as functional, cell-based. The settings on record: Rattus norvegicus.
A short description of assay [19]: Concentration-dependent survival of SW480 colon cancer line, luminescence detection with CellTiter-Glo, half-maximal inhibitory concentration (AID 1117338). The assay is classed as functional.
The nature of assay [20]: RKO cell viability reduction, dose response, CellTiter-Glo luminescence (AID 1117322). The assay is classed as functional.
A short description of assay [21]: cytotoxicity toward HCT116 cells – cell-based, CellTiter-Glo luminescence, IC50, dose response (AID 1117332). The assay is classed as functional. The settings on record: HCT-116.
Assay [22] is described as follows: SNU-C1 cell viability reduction, dose response, CellTiter-Glo luminescence (AID 1117323). The assay is classed as functional, cell-based.
A short description of assay [23]: cytotoxicity toward Colo320 cells – cell-based, CellTiter-Glo luminescence, IC50, dose response (AID 1117334). The assay is classed as functional. As to conditions: COLO 320.
Assay [24] in a line: cytotoxicity toward HT-29 cells – cell-based, CellTiter-Glo luminescence, IC50, dose response (AID 1117330). The assay is classed as functional.
The nature of assay [25]: CellTiter-Glo luminescent dose response of DLD-1 viability loss (AID 1117352). The assay is classed as functional.
Assay [26] in a line: HCT116 cell viability decrease, GSK3B pretreatment – CellTiter-Glo, IC50, dose response (AID 1117339). As to conditions: HCT-116. The assay is classed as functional.
The target of assay [27] is Aryl hydrocarbon receptor (Homo sapiens, UniProt P35869). As to conditions: Potency.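 Further: confirmatory quantitative high-throughput screen measuring activation of the AhR signaling pathway.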
Aryl hydrocarbon receptor, sequence (P35869 whole entry): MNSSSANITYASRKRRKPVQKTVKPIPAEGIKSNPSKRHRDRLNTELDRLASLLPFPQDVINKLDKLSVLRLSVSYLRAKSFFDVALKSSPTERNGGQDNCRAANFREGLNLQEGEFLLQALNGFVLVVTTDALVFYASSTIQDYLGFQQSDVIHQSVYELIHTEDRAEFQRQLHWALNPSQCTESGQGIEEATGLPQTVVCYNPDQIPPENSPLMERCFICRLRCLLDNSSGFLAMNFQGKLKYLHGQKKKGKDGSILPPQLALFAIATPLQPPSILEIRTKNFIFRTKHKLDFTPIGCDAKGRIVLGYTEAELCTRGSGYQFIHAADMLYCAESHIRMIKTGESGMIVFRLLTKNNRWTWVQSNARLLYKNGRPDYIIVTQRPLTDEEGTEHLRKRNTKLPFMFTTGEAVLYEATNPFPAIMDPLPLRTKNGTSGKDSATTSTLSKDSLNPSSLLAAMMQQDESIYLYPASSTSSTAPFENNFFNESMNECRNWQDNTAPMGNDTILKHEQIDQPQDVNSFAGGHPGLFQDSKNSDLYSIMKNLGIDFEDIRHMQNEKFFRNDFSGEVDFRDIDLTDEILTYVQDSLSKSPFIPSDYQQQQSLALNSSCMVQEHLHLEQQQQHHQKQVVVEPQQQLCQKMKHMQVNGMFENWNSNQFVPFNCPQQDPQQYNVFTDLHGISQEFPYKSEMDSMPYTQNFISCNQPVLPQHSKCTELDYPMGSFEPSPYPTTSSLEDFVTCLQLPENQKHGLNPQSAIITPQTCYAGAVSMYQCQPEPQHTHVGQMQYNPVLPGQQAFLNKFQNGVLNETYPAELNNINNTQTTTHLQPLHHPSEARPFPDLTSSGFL

T4 sequence (P10635 whole entry): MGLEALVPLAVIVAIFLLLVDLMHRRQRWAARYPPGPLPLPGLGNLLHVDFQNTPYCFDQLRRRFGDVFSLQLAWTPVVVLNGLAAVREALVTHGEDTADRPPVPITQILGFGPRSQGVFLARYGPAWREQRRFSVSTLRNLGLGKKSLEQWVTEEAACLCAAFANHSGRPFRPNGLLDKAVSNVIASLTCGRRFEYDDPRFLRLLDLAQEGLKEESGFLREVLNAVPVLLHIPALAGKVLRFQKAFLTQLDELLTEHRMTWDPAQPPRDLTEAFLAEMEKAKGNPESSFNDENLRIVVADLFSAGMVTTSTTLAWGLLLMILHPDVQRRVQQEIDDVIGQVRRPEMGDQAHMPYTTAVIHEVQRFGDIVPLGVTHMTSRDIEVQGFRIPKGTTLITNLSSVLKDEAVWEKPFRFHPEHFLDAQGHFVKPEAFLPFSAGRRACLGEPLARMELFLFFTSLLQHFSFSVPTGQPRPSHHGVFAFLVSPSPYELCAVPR
T5 sequence (P11712 whole entry): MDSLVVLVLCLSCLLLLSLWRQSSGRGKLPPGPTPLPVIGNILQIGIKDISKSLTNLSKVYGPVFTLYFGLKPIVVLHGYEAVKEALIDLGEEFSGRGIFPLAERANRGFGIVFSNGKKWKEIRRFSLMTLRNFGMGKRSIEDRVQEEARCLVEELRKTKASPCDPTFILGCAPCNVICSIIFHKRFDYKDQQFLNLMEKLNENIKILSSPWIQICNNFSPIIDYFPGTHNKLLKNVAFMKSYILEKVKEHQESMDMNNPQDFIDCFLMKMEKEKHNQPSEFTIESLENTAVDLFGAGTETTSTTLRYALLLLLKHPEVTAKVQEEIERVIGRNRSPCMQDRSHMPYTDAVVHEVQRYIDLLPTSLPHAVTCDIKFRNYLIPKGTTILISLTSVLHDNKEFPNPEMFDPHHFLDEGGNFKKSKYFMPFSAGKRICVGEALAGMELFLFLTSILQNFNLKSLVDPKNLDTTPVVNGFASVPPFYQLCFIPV
Tumor necrosis factor, sequence (P01375 whole entry, the tested form may be a part): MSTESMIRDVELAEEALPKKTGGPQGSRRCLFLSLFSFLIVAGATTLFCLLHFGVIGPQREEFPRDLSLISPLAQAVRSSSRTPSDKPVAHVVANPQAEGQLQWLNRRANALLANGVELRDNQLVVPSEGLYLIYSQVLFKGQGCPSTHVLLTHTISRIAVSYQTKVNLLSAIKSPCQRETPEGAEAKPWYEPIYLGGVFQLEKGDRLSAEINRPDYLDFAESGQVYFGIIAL
SWI/SNF-related matrix-associated actin-dependent regulator of chromatin subfamily A member 2, sequence (P51531 whole entry): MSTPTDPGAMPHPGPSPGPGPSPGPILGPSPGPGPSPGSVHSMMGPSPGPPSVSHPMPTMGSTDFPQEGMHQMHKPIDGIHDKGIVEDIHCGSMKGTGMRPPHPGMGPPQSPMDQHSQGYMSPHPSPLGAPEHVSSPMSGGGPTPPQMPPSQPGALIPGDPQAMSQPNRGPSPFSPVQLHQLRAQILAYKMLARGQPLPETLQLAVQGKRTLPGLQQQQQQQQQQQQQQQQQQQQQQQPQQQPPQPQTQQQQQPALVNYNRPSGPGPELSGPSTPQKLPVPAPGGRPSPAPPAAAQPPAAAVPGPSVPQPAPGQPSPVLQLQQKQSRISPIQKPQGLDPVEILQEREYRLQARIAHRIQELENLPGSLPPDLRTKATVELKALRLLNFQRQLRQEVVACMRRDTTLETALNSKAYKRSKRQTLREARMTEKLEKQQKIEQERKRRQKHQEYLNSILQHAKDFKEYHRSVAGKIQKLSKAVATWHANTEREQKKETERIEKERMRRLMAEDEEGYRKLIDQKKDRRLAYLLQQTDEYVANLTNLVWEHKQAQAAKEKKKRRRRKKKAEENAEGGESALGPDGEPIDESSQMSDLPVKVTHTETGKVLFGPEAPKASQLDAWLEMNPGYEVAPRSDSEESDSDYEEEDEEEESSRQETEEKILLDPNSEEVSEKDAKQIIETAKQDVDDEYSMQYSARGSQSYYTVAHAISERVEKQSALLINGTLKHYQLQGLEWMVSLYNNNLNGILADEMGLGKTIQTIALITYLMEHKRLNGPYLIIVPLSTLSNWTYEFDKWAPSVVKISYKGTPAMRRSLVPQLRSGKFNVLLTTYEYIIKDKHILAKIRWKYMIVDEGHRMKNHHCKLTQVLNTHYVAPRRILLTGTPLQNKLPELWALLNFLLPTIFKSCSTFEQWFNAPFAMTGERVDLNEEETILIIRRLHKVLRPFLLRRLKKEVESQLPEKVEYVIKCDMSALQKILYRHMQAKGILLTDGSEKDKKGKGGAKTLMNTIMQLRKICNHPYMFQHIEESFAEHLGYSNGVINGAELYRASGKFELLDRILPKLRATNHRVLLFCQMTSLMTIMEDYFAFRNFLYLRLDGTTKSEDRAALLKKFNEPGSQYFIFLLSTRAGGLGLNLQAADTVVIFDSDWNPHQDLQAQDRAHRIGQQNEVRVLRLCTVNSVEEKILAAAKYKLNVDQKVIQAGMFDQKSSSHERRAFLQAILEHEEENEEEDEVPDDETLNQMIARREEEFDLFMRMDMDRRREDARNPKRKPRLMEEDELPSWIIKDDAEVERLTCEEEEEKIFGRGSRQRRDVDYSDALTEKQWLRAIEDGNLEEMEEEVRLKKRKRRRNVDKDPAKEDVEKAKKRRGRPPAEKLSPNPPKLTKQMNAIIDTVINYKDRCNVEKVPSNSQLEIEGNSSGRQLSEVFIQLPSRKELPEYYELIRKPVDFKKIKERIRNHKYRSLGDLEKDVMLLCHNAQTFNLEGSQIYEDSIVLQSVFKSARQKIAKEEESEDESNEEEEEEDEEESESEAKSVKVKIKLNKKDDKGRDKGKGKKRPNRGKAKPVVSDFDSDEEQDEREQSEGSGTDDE
5-hydroxytryptamine receptor 2A, sequence (P35363 whole entry): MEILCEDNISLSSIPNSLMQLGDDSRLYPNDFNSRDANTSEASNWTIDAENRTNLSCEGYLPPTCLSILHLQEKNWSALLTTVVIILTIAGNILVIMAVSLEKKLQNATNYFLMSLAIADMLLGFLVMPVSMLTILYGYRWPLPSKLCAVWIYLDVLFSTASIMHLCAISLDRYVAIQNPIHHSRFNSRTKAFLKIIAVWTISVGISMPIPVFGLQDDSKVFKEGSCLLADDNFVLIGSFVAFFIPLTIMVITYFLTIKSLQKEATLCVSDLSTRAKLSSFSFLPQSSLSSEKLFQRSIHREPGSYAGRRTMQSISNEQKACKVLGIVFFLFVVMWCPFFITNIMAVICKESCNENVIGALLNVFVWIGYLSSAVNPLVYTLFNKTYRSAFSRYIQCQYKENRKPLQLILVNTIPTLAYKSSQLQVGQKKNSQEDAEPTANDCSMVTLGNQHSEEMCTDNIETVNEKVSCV
Cyclin-dependent kinase 5/CDK5 activator 1, sequence (Q00535 whole entry): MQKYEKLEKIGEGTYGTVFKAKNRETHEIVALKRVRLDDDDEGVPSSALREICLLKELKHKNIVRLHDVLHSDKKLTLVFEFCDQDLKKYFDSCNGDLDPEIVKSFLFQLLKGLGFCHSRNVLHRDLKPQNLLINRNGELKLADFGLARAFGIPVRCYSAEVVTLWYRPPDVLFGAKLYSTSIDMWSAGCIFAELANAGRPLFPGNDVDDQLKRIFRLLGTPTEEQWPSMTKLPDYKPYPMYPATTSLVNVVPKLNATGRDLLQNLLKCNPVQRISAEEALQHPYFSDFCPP
Cyclin-dependent kinase 5/CDK5 activator 1, sequence (Q15078 whole entry, further chain): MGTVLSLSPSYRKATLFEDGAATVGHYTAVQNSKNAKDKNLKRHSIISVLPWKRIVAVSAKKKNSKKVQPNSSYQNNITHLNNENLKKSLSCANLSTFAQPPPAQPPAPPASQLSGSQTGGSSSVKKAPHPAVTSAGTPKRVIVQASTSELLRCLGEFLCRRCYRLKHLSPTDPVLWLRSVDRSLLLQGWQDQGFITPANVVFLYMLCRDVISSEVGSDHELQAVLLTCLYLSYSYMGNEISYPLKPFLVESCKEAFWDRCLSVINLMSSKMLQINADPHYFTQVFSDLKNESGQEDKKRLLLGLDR

`O=C(Nc1nc2ccccc2n1Cc1ccccc1)c1ccco1`: the EC50 in assay [1] is 3.48 µM (active); at Streptokinase A, > 150 µM (not active); with Streptococcus it was > 150 µM (not active). The IC50 at Tumor necrosis factor is > 20 µM (inactive); in assay [2], > 20 µM (inactive); in assay [3] it was > 20 µM (inactive); with H9c2, > 79 µM (inactive); in the assay with HEK293 [4], > 20 µM (inactive).
Regarding `N#Cc1c(Br)n(C2OC(CO)C(O)C2O)c2ncnc(N)c12` (stereo not given), the AC50 in assay [5] is 184 µM (active); in assay [8] it was 2.09 µM (active). Further, the IC50 (in the assay with HEK293 [6]; in assay [7]) was > 67.5 µM (inactive) each time. Moreover, the EC50 at Mu-type opioid receptor is 92.4 µM (inactive); in assay [9], 0.482 µM (active); in assay [10], > 91.1 µM (inactive); in assay [11] it was > 91.1 µM (inactive); in assay [12], > 67.5 µM (inactive).
Consider `O=C(CCNNC(=O)c1ccncc1)NCc1ccccc1` [NIALAMIDE], for which the AC50 at Cytochrome P450 2D6 [13] was 25.1 µM (inconclusive); at Cytochrome P450 2C19 it was 10 µM (inconclusive); on Cytochrome P450 2C9 [14] it was 25.1 µM (inconclusive); on Cytochrome P450 2D6 [15] it was 7.94 µM (inconclusive); at Cytochrome P450 1A2, 12.6 µM (inconclusive); at Cytochrome P450 2C9 [16], 10 µM (inconclusive).
`COC(=O)[C@H]1[C@H]2C[C@@H]3c4[nH]c5cc(OC)ccc5c4CCN3C[C@H]2C[C@@H](OC(=O)/C=C/c2cc(OC)c(OC)c(OC)c2)[C@@H]1OC` [RESCINNAMINE]: in assay [17], the AC50 is 142 µM (active).
Consider `O=C(Nc1ccc(Cl)cc1)Nc1ccc(Cl)c(Cl)c1` [TRICLOCARBAN], for which the IC50 in assay [18] is 1.49 µM (active); in assay [19], 0.897 µM (active); in [20] it was 0.288 µM (active); in [21], 0.228 µM (active); in assay [22], 0.335 µM (active); in assay [23] it was 0.362 µM (active). Moreover, the IC50 in [24] is 0.383 µM (active); in assay [25], 0.323 µM (active); in [26] it was 0.362 µM (active). Moreover, the AC50 is 3.69 µM (active) in the assay on INS1 and 14.1 µM (inconclusive) in [27].
